Assay results as given in patent US20050176778A1, “Isoprenyl derivatives and their use in the title treatment and prevention of osteoporosis and cardiovascular calcification” (Vitak BV, priority 2001, published 2005).
Entries after “also recorded” stand apart in the source; their conditions may differ.

Legend:
[1] = system: vascular calcification (aortic arch and carotid arteries); test: Experiment 3: vascular calcification (Von Kossa staining) in rats treated with warfarin and increasing doses of vitamin K-1; type: in vivo, male Lewis rats
Excerpt: In the present invention the “Vitamin K1 plus warfarin” model was used to test effects of isoprenyl derivatives on vascular calcification. This model is also referred to as the “KW model for calcification” or “KW model”. Because of the parallels between vascular calcification and calcium metabolism in bone, the model is regarded to be valid for describing potential effects on bone.
The same animals described in experiment 2 were killed, and the aortic arch and carotid arteries were removed and stained for calcium deposits using the Von Kossa staining and histochemical inspection.

prothrombin [2] = test: Experiment 2: dietary requirement of vitamin K-1 in warfarin-treated rats, plasma prothrombin level; type: in vivo, male Lewis rats
Description: In experiment 2 the dietary requirement of vitamin K-1 in warfarin-treated (300 mg Vitamin K-1 per kg body weight per day) male Lewis rats, 6 weeks of age, was measured on the basis of blood coagulation tests after a treatment period of 4 weeks. At a level of 40 mg vitamin K-1 per kg body weight per day a normal prothrombin synthesis was maintained.
Thirty six male Lewis rats (6 weeks of age) were treated with an excess of warfarin (300 mg vitamin K-1 per kg body weight per day) to block all dithiol reductase present in the tissues. They were subdivided into groups of 6 animals each and received vitamin K-1 in the following doses: 20, 40, 70, 100, 300, and 600 mg/kg body weight per day. […] It was concluded that […] of vitamin K-1 per kg body weight per day effectively protects the animals against warfarin-induced bleeding.

prothrombin [3] = test: Experiment 1: dietary requirement of vitamin K-1 in untreated rats, prothrombin concentration (one-stage coagulation assay); type: in vivo, male Lewis rats; conditions: for Mean prothrombin concentration: four weeks
Description: In experiment 1 the dietary requirement of vitamin K-1 was measured in untreated male Lewis rats, 6 weeks of age, on the basis of blood coagulation tests after a treatment period of 4 weeks. At an intake of 40 microgram vitamin K-1 per kg body weight per day, the synthesis of coagulation factors had reached its (maximal) plateau level.
Male rats of the Lewis strain were used throughout our experiments, six animals per group. Thirty six animals entered the experiment at the age of 6 weeks and received a vitamin K deficient diet (Hope Farms, Woerden, The Netherlands) for one week to deplete them from endogenous vitamin K. During the experiment they were housed in coprophagy-preventing cages. After this period citrated blood was taken from the tail vein, and the prothrombin concentrations (one-stage coagulation assay) were checked to be below the normal reference value. At that time they received vitamin K-deficient food to which controlled amounts of vitamin K-1 were added in the following doses: 0.1, 0.2, 0.4, 0.6, 0.8, and 1.0 mg/kg of food. The daily food intake was recorded, and the body weight of the animals was measured regularly. After four weeks of treatment at the indicated doses again blood was taken and prothrombin concentrations were measured. Mean prothrombin concentrations in the groups were: 23%, 48%, 82%, 98%, 102%, and 99% of pooled normal rat reference plasma. […] This amount corresponds with an intake of 40 micrograms of vitamin K-1 per kg body weight per day.

[4] = system: vascular calcification (aortae and carotid arteries); test: Experiment 4: vascular calcification (Von Kossa staining) in rats treated with warfarin, vitamin K-1 and increasing doses of MK-4 (KW model); type: in vivo, male Lewis rats
Excerpt: In the present invention the “Vitamin K1 plus warfarin” model was used to test effects of isoprenyl derivatives on vascular calcification. This model is also referred to as the “KW model for calcification” or “KW model”. Because of the parallels between vascular calcification and calcium metabolism in bone, the model is regarded to be valid for describing potential effects on bone. Whereas in this model the bone deformations will not become visible before 9 months of treatment, calcification of the large arteries is usually apparent within 4 weeks of treatment. This model therefore provides an excellent in vivo model to test the compounds according to the invention for their tissue distribution, toxicity and effectivity. […] It was shown that calcification was not inhibited by vitamin K-1 in doses going up from 40 to 600 mg/kg of body weight per day. The highest dose was 15,000 times the amount required for normal blood coagulation in untreated animals, and 15 times the amount required for normal blood coagulation in warfarin-treated animals. At these high intakes all tissues contain excessive amounts of vitamin K-1, which apparently are incapable of supporting the synthesis of inhibitors of calcium precipitation such as the Gla-protein MGP. […]

postmenopausal bone loss = conditions: cited from earlier work

For `CC1=C(C/C=C(\C)CCC[C@H](C)CCC[C@H](C)CCCC(C)C)C(=O)c2ccccc2C1=O` [vitamin K-1], the Inhibition of calcification ([1]; KW model, vitamin K-1 doses going up from 40 to 600 mg/kg of body weight per day) was “not inhibited”, the “Vascular calcification (Von Kossa staining)” value ([1]; warfarin 300 mg/kg/d plus vitamin K-1 20, 40, 70, 100, 300 and 600 mg/kg body weight per day, 4 weeks) was “substantial calcification; also recorded: Calcification of the media (notably the elastic lamelae) was found in all animals” and the “Dose that effectively protects the animals against warfarin-induced bleeding” value (prothrombin [2]) was 70 mg of vitamin K-1 per kg body weight per day. The “Level at which a normal prothrombin synthesis was maintained” value (prothrombin [2]; 4 weeks) was 40 mg vitamin K-1 per kg body weight per day, the Circulating prothrombin concentration (prothrombin [2]; 20 and 40 mg of vitamin K-1 per day) was 60 % of normal and the Circulating prothrombin concentration (prothrombin [2]; all higher intakes (70, 100, 300, 600 mg/kg body weight per day)) was “comparable to normal reference values”. The “Diet content sufficient to maintain normal prothrombin synthesis” value (prothrombin [3]; untreated rats, content in food) was 0.6 mg of vitamin K-1 per kg, the Mean prothrombin concentration (prothrombin [3]; vitamin K-1 0.1 mg/kg of food, after vitamin K deficient diet) was 23 % of pooled normal rat reference plasma and the Mean prothrombin concentration (prothrombin [3]; vitamin K-1 0.2 mg/kg of food) was 48 % of pooled normal rat reference plasma. For the same compound, the Mean prothrombin concentration (prothrombin [3]; vitamin K-1 0.4 mg/kg of food) was 82 % of pooled normal rat reference plasma, the Mean prothrombin concentration (prothrombin [3]; vitamin K-1 0.6 mg/kg of food) was 98 % of pooled normal rat reference plasma and the Mean prothrombin concentration (prothrombin [3]; vitamin K-1 0.8 mg/kg of food) was 102 % of pooled normal rat reference plasma. For the same compound, the Mean prothrombin concentration (prothrombin [3]; vitamin K-1 1.0 mg/kg of food) was 99 % of pooled normal rat reference plasma.
In the case of `CC(C)=CCC/C(C)=C/CC/C(C)=C/CC/C(C)=C/CC1=C(C)C(=O)c2ccccc2C1=O` [MK-4, 2-methyl 3-geranylgeranyl naphthoquinone], the “Inhibition of vascular calcification” value ([4]; KW model, addition of 10 mg/kg body weight per day of MK-4) is listed as “effectively inhibited all vascular calcification”, the “Vascular calcification (Von Kossa staining)” value ([4]; warfarin 300 mg/kg/d plus vitamin K-1 70 mg/kg/d plus MK-4 10, 20 and 50 mg per kg body weight per day, 6 weeks) is listed as “no calcification” and the Action on bone (postmenopausal bone loss; high doses of MK-4 (45 mg/day)) is listed as “comparable with that of bisphosphonates”. The “Effect on postmenopausal bone loss” value (postmenopausal bone loss; high doses) was “almost completely inhibit postmenopausal bone loss”.
